Test [1] deals with A431 cells. The test can be described thus: Drug screening with live/dead assay on A431 cells in the MECT microfluidic device. In kind it is cell-based. How it is done:
Taking advantage of the ability of the MECT device in generating uniform gradient within each chamber, a drug screening study with A431 cells administrated with control media and Dox was performed. Five conditions were studied: (1) Cells were stained with live/dead assay 24 hours after seeding without any media flow. This serves as the control; (2) cells were perfused by DMEM from both inlets for 12 hours before live/dead staining. This experiment examined the effect of shear stress on cell viability; (3, 4, 5) cells were perfused for 12 hours with DMEM/Dox (at a concentration of 30 μg/ml) from the bottom inlet and DMEM from the top inlet at flow rates of 0.05 μl/min (3), 0.1 μl/min (4) and 0.2 μl/min (5) for both inlets. Representative images for the studies of condition 1, 2, 4 and 5 are shown in FIGS. 6a-6d and of condition 3 in FIG. 7a. These studies were performed after the cells had been seeded within the microchambers for 24 hours. […] This provided clear evidence that cells within each chamber were viable and the device works properly. The effect of shear stress was then examined by perfusion of both inlets with a control media, Dulbecco's Modified Eagle Medium (DMEM) at a flow rate of 0.1 μl/min. Overall a slightly lower cell viability, at an average of 88%, was observed due to the shear induced cell death (FIG. 6b). In addition, the cell viability increased from the columns closest to the inlet of the device to the columns closes to the outlets, in agreement with COMSOL simulation where the shear stress is higher in the columns close to the inlets (FIG. 5).
As discussed in microchannel fabrication, PDMS with ratio 1:10 were used to fabricate the microchannel and it was bonded to glass-slides and cured for 30 min at 80° C. inside the oven. Human fibronectin protein (Thermofisher) with the concentration of 50 μg/ml was used to coat the surface of the glass-slide as the bottom layer of the microchannels. Fibronectin was flowed into the microchannels by syringes and incubated for 2 hours. The fibronectin coated microchannel was washed with PBS. A mixture of the cell and DMEM was flowed into the microchannel by syringe pump at a flow rate (30 μl/min). The concentration of cell mixture was about 10 million cells per ml of media. Cell attachment and proliferation inside the microchannel was reached by placing the microchannel inside the incubator for 24 hours.
Doxorubicin hydrochloride 98.0-102.0% (HPLC) with molecular weight of 579.98 was dissolved in water and was diluted in DMEM media. […] Cells were then counted with ImageJ cell counter module. Viability of the cells was calculated as the ratio of the live cells (stained green) over the total number of the cell, summation of the live (green) and dead (red) cells within each chamber.

The test system of test [2] is A431 cells. Description: Multi-well (static culture) Dox study on A431 cells, live/dead assay. In kind it is cell-based. The following applies: Dox 0, 6, 12, 18, 24 and 30 μg/ml; device flow rate 0.05 μl/min.
Protocol: Viability data with DMEM/Dox at the inlets at a flow rate of 0.05 μl/ml was compared with Dox treatment of A431 cells in static culture. A lower flow rate was chosen to minimize the effect of the shear stress on cell detachment and cell death. […] Cell viabilities data was collected by counting cells stained green and red from these chambers. According to simulation data, the concentration of Dox in the chambers 13 through 18 are: 0 μg/ml, 6 μg/ml, 12 μg/ml, 18 μg/ml, 24 μg/ml and 30 μg/ml. These dosages were applied in static culture and the viability data were collected. […] Doxorubicin hydrochloride 98.0-102.0% (HPLC) with molecular weight of 579.98 was dissolved in water and was diluted in DMEM media. For A431 cells, live-dead staining kit was diluted with PBS and was continuously flowed into the chambers with cells for 2 hours. Live-dead kit contains, Calcein-AM which stains green to the cytoskeleton of live cells and ethidium homodimer which stains red to the nuclei of dead cells. Cells were then counted with ImageJ cell counter module. Viability of the cells was calculated as the ratio of the live cells (stained green) over the total number of the cell, summation of the live (green) and dead (red) cells within each chamber.

Structures are written as SMILES. Where a name gives a salt, the structure may show the parent alone.

Consider `COc1cccc2c1C(=O)c1c(O)c3c(c(O)c1C2=O)C[C@@](O)(C(=O)CO)C[C@@H]3O[C@H]1C[C@H](N)[C@H](O)[C@H](C)O1` [Dox, Doxorubicin hydrochloride], for which the “overall cell viability in condition 5 (0.2 μl/min DMEM/Dox) versus condition 4 (0.1 μl/min DMEM/Dox)” value in the test on A431 cells [1] (12 h, Dox 30 μg/ml, higher shear stress at higher flow rate) is given as “clearly lower”. Further, the “cell viability from chambers #13 to #18” value in the test with A431 cells [1] (12 h DMEM/Dox 30 μg/ml, flow rates 0.05, 0.1 and 0.2 μl/min (conditions 3 through 5)) is “overall decline”. Also, in the test on A431 cells [1] (12 h perfusion, DMEM top inlet, DMEM/Dox 30 μg/ml bottom inlet, flow rates 0.1 and 0.2 μl/min), the “cell viability from top chamber to bottom chamber of each column (lowest to highest Dox concentration)” value is listed as “decreased significantly”. The “effect of increasing doxorubicin concentrations within chambers on skin cancer cells” value in the test on A431 cells [1] (doxorubicin flowed into chambers at different flow rate) is listed as “induces cell death”. Moreover, in the test with A431 cells [2], the “cell viability in static culture compared with device chambers #13 through #18” value is “reasonable agreement”.

Values taken from US12064759B2, “Microfluidic device with embedded cell culture chambers for high throughput biological assays” (NUtech Ventures, priority 2020, dated 2024).
